Where two headings read alike, the source gives them in different places. Blank lines part the entries; values can stand above or below the molecule they belong to.
What was measured:
Type in all cases: biochemical
[1] = target: JAK3 (Homo sapiens (Human), UniProt P52333); test: Enzyme assay (Assay Example^a 1), JAK3
[2] = target: JAK1 (Homo sapiens (Human), UniProt P23458); test: Enzyme assay (Assay Example^a 1), JAK1; conditions: ATP 100 μM
[3] = target: Tyk2 (Homo sapiens (Human), UniProt P29597); test: Enzyme assay (Assay Example^a 1), Tyk2; conditions: ATP 100 μM
Tyk2, sequence (P29597 whole entry): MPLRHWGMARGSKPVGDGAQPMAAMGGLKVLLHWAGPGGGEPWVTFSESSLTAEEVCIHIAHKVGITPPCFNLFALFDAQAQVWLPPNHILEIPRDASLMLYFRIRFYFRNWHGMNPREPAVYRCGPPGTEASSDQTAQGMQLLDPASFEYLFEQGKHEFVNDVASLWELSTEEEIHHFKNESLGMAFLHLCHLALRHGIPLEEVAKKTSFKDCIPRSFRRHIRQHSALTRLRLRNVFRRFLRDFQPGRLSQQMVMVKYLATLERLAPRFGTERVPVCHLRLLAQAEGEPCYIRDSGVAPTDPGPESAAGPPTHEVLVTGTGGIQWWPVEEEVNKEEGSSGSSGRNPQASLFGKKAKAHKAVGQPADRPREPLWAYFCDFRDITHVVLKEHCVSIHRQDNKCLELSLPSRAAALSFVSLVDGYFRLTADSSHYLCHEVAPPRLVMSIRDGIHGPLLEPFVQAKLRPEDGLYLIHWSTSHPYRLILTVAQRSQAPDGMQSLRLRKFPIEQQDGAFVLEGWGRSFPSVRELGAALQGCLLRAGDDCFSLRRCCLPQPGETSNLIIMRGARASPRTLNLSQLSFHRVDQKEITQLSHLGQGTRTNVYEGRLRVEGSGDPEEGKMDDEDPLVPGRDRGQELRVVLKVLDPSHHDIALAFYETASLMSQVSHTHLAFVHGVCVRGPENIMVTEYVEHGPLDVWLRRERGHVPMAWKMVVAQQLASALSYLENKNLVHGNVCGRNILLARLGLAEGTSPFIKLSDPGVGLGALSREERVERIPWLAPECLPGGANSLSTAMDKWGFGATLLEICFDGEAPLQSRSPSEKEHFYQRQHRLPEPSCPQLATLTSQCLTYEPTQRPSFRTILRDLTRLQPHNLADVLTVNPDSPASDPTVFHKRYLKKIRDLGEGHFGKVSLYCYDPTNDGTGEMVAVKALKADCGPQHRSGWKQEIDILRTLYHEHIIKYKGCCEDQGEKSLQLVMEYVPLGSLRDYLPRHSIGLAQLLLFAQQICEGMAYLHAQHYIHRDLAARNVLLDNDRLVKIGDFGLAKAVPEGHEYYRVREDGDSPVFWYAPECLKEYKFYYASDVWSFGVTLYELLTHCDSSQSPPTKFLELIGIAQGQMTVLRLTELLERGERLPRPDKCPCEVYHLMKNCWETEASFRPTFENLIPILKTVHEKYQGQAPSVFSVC

JAK3, sequence (P52333 whole entry): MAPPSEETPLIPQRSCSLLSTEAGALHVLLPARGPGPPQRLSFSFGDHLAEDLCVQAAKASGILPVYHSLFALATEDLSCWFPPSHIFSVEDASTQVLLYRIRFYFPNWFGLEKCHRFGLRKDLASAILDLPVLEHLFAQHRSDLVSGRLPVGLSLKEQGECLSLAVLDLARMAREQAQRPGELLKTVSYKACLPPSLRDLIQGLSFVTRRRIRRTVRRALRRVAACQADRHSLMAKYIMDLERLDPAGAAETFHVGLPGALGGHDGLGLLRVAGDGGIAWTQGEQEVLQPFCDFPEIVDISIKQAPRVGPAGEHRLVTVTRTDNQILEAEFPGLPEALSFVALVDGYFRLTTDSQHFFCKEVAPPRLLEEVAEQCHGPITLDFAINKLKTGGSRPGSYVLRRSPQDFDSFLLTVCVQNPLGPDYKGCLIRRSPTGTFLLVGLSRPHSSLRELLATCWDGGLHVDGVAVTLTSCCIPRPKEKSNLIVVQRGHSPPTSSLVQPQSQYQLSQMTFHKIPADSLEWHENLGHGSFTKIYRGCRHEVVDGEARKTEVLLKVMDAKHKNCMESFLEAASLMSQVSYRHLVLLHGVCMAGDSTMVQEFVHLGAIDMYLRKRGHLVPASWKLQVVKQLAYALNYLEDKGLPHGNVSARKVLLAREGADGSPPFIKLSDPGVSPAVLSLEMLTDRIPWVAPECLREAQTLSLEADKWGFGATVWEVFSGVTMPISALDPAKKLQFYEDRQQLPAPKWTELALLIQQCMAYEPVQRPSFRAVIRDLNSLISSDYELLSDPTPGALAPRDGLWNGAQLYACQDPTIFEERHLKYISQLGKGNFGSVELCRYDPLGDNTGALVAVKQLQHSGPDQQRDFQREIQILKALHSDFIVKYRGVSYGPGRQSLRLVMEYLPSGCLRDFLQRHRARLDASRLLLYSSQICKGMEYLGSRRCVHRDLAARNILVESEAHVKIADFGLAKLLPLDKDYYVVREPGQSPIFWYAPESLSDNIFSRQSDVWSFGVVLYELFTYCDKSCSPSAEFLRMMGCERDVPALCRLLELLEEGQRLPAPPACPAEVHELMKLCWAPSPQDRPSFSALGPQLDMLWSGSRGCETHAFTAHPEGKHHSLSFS

Compound: c1ccc(CN2CCCC(c3nnn4cnc5[nH]ccc5c34)C2)cc1 (racemic) [compound 16]
IC50 ([1]; ATP 100 μM, Table^a 154): 5.3 µM
IC50 ([2]; Table^a 154): 0.28 µM

Compound: NC(=O)c1ccc(CN2CCC(c3nnn4cnc5[nH]ccc5c34)CC2)cc1 [compound 241, 4-{[4-(7H-pyrrolo[3,2-e][1,2,3]triazolo[1,5-c]pyrimidin-1-yl)piperidin-1-yl]methyl}benzamide]
IC50 [3]: > 1 µM
IC50 ([1]; ATP 100 μM): > 1 µM
IC50 [2]: 0.046 µM

Compound: Clc1ccc(CN2CCC(c3nnn4cnc5[nH]ccc5c34)CC2)cc1 [compound 54]
IC50 [1]: 0.071 µM

Compound: Cc1cc(OC(F)(F)F)ccc1NC1CCC(c2nnn3cnc4[nH]ccc4c23)CC1 (centres unmarked) [compound 133]
IC50 ([3]; Table^a 154): > 1 µM
IC50 [1]: > 1 µM
IC50 ([2]; Table^a 154): 0.12 µM

Compound: OC(CNC[C@H]1CC[C@H](c2nnn3cnc4[nH]ccc4c23)CC1)c1ccccc1 (mixture of isomers) [compound 186, 2-({[trans-4-(7H-pyrrolo[3,2-e][1,2,3]triazolo[1,5-c]pyrimidin-1-yl)cyclohexyl]methyl}amino)-1-phenylethanol]
IC50 ([3]; Table^a 154): 0.044 µM

Compound: Fc1ccc(CNC[C@H]2CC[C@H](c3nnn4cnc5[nH]ccc5c34)CC2)cc1C(F)(F)F [compound 112]
IC50 ([2]; Table^a 154): 0.0049 µM

Compound: O=C(Nc1nncs1)N1CCC(c2nnn3cnc4[nH]ccc4c23)CC1 [compound 30]
IC50 ([1]; ATP 100 μM, Table^a 154): 0.48 µM

Compound: CC(C)(C)OC(=O)N1CCCC(c2nnn3cnc4[nH]ccc4c23)C1 (racemic) [compound 13]
IC50 ([3]; Table^a 154): > 1 µM

Compound: N#Cc1ccc(CCN2CCC(c3nnn4cnc5[nH]ccc5c34)CC2)cc1 [compound 375, 4-{2-[4-(7H-Pyrrolo[3,2-e][1,2,3]triazolo[1,5-c]pyrimidin-1-yl)piperidin-1-yl]ethyl}benzonitrile]
IC50 [3]: > 1 µM
IC50 ([1]; ATP 100 μM): > 1 µM
IC50 [2]: 0.047 µM

Compound: CC(c1ccccc1)N1CCC(c2nnn3cnc4[nH]ccc4c23)CC1 (racemic) [compound 245, 1-[1-(1-phenylethyl)piperidin-4-yl]-7H-pyrrolo[3,2-e][1,2,3]triazolo[1,5-c]pyrimidine]
IC50 [3]: > 1 µM
IC50 ([1]; ATP 100 μM): > 1 µM

Compound: FC(F)(F)c1ccc(CN2CCCC(c3nnn4cnc5[nH]ccc5c34)C2)cc1 (racemic) [compound 23]
IC50 ([2]; Table^a 154): 0.55 µM

Compound: ClC[C@H]1CC[C@H](c2nnn3cnc4[nH]ccc4c23)CC1 [compound 75]
IC50 ([1]; ATP 100 μM, Table^a 154): 0.032 µM

Compound: FC(F)(F)c1cccc(CN2CCC(c3nnn4cnc5[nH]ccc5c34)CC2)c1 [compound 39]
IC50 ([1]; ATP 100 μM, Table^a 154): 0.53 µM

Compound: O[C@H]1CC[C@H](c2nnn3cnc4[nH]ccc4c23)CC1 [compound 81]
IC50 [1]: 0.64 µM

Compound: O[C@H](CN[C@H]1CC[C@H](c2nnn3cnc4[nH]ccc4c23)CC1)c1ccccc1 [203b, (S)-2-{[trans-4-(7H-pyrrolo[3,2-e][1,2,3]triazolo[1,5-c]pyrimidin-1-yl)cyclohexyl]amino}-1-phenylethanol]
IC50 ([3]; Table^a 154): 0.33 µM

Compound: N#Cc1cccc(CN2CCC(c3nnn4cnc5[nH]ccc5c34)CC2)c1 [compound 35]
IC50 ([1]; ATP 100 μM, Table^a 154): 0.26 µM

Compound: FC(F)(F)c1cc(CN2CCC(c3nnn4cnc5[nH]ccc5c34)CC2)cc(C(F)(F)F)c1 [compound 47]
IC50 ([3]; Table^a 154): > 1 µM
IC50 ([2]; Table^a 154): 0.78 µM

Compound: OC(CN[C@H]1CC[C@H](c2nnn3cnc4[nH]ccc4c23)CC1)c1ccccc1 (mixture of isomers) [202b, 2-{[trans-4-(7H-pyrrolo[3,2-e][1,2,3]triazolo[1,5-c]pyrimidin-1-yl)cyclohexyl]amino}-1-phenylethanol]
IC50 ([3]; Table^a 154): 0.26 µM

Compound: O[C@H]1CC[C@@H](c2nnn3cnc4[nH]ccc4c23)CC1 [compound 83]
IC50 [1]: 0.28 µM

Compound: FC(F)(F)c1ccc(CN2CCC(c3[nH]c(=S)n4cnc5[nH]ccc5c34)CC2)cc1 [compound 86]
IC50 ([2]; Table^a 154): 0.02 µM

Compound: FC(F)(F)c1ccc(CN2CCC(c3nnn4cnc5[nH]ccc5c34)CC2)cn1 [compound 52]
IC50 [1]: 0.041 µM

Compound: c1ccc2sc(CN3CCC(c4nnn5cnc6[nH]ccc6c45)CC3)nc2c1 [compound 232, 2-{[4-(7H-pyrrolo[3,2-e][1,2,3]triazolo[1,5-c]pyrimidin-1-yl)piperidin-1-yl]methyl}benzo[d]thiazole]
IC50 ([1]; ATP 100 μM): > 1 µM

Compound: O[C@@H](CN[C@H]1CC[C@H](c2nnn3cnc4[nH]ccc4c23)CC1)c1ccccc1 [204b, (R)-2-{[trans-4-(7H-pyrrolo[3,2-e][1,2,3]triazolo[1,5-c]pyrimidin-1-yl)cyclohexyl]amino)-1-phenylethanol]
IC50 ([3]; Table^a 154): 0.35 µM

Compound: CC(=O)SC[C@H]1CC[C@H](c2nnn3cnc4[nH]ccc4c23)CC1 [compound 71]
IC50 [1]: 0.055 µM

Compound: c1cncc(CN2CCCC(c3nnn4cnc5[nH]ccc5c34)C2)c1 (racemic) [compound 18]
IC50 ([3]; Table^a 154): > 1 µM

Compound: CC(C)(C)OC(=O)N[C@H]1CC[C@H](c2nnn3cnc4[nH]ccc4c23)CC1 [compound 59]
IC50 ([3]; Table^a 154): > 1 µM
IC50 ([1]; ATP 100 μM, Table^a 154): > 1 µM

Compound: O=C(OCc1ccccc1)N1CCCC(c2ncn3cnc4[nH]ccc4c23)C1 (racemic) [compound 3]
IC50 ([1]; ATP 100 μM): 1.4 µM
IC50 [2]: 0.057 µM

Compound: COC[C@H]1CC[C@H](c2nnn3cnc4[nH]ccc4c23)CC1 [compound 62]
IC50 ([3]; Table^a 154): 0.14 µM
IC50 ([1]; ATP 100 μM, Table^a 154): 0.47 µM

Compound: N[C@H]1CC[C@H](c2nnn3cnc4[nH]ccc4c23)CC1 [compound 61]
IC50 ([3]; Table^a 154): 0.44 µM

Compound: O=C(Nc1nncs1)N1CCCC(c2nnn3cnc4[nH]ccc4c23)C1 (racemic) [compound 20]
IC50 ([3]; Table^a 154): 0.42 µM
IC50 ([2]; Table^a 154): 0.019 µM

Compound: Fc1ccc(NC[C@H]2CC[C@H](c3nnn4cnc5[nH]ccc5c34)CC2)c(C(F)(F)F)c1 [compound 117]
IC50 [1]: > 1 µM
IC50 ([2]; Table^a 154): 0.039 µM

Compound: c1cc2c(ncn3nnc(C4CC5CCC4C5)c23)[nH]1 (centres unmarked) [compound 65]
IC50 ([3]; Table^a 154): 0.025 µM
IC50 ([1]; ATP 100 μM, Table^a 154): 0.15 µM

Compound: CC1CCN(C(=O)CC#N)CC1c1nnn2cnc3[nH]ccc3c12 (centres unmarked) [compound 12]
IC50 ([3]; Table^a 154): 0.91 µM
IC50 ([2]; Table^a 154): 0.021 µM

Compound: CC(=O)OC[C@H]1CC[C@H](c2nnn3cnc4[nH]ccc4c23)CC1 [compound 72]
IC50 ([1]; ATP 100 μM, Table^a 154): 0.048 µM

Compound: N#Cc1ccc(N[C@H]2CC[C@H](c3nnn4cnc5[nH]ccc5c34)CC2)cc1 [134b]
IC50 [1]: 0.66 µM

Compound: O=C(OCc1ccccc1)N1CCC(c2nnn3cnc4[nH]ccc4c23)C1 (racemic) [compound 211, Benzyl 3-(7H-pyrrolo[3,2-e][1,2,3]triazolo[1,5-c]pyrimidin-1-yl)pyrrolidine-1-carboxylate]
IC50 ([2]; Table^a 154): 0.12 µM

Compound: N#Cc1ccc(N[C@H]2CC[C@@H](c3nnn4cnc5[nH]ccc5c34)CC2)cc1 [134a]
IC50 [1]: 1 µM

Compound: FC(F)(F)CN1CCC(c2nnn3cnc4[nH]ccc4c23)CC1 [compound 25]
IC50 [1]: 0.44 µM

Compound: CO[C@H]1CC[C@H](c2nnn3cnc4[nH]ccc4c23)CC1 [compound 63]
IC50 ([2]; Table^a 154): 0.011 µM

Compound: Cc1cc(NC(=O)N2CCC(c3nnn4cnc5[nH]ccc5c34)CC2)sn1 [compound 31]
IC50 ([1]; ATP 100 μM, Table^a 154): > 1 µM

Next, values leading:

IC50 ([1]; ATP 100 μM, Table^a 154): 0.015 µM
Compound: Brc1ncc(CN2CCC(c3nnn4cnc5[nH]ccc5c34)CC2)s1 [compound 153]

IC50 [3]: 0.51 µM
IC50 ([1]; ATP 100 μM): > 1 µM
IC50 [2]: 0.0084 µM
Compound: OC1(CNC[C@H]2CC[C@H](c3nnn4cnc5[nH]ccc5c34)CC2)CCCCC1 [compound 313, 1-[({[trans-4-(7H-pyrrolo[3,2-e][1,2,3]triazolo[1,5-c]pyrimidin-1-yl)cyclohexyl]methyl)amino)methyl]cyclohexanol]

IC50 [3]: 0.16 µM
IC50 ([1]; ATP 100 μM): 0.69 µM
IC50 [2]: 0.0018 µM
Compound: O=C(NCC(F)(F)F)[C@H]1CC[C@H](c2nnn3cnc4[nH]ccc4c23)CC1 [compound 354, trans-4-(7H-pyrrolo[3,2-e][1,2,3]triazolo[1,5-c]pyrimidin-1-yl)-N-(2,2,2-trifluoroethyl)cyclohexanecarboxamide]

IC50 ([1]; ATP 100 μM, Table^a 154): > 1 µM
Compound: c1cc2c(ncn3nnc(C4CCC(NCCN5CCOCC5)CC4)c23)[nH]1 (centres unmarked) [compound 126]

IC50 ([1]; ATP 100 μM, Table^a 154): 0.62 µM
Compound: Fc1ccc(CN2CCC(c3nnn4cnc5[nH]ccc5c34)CC2)cc1C(F)(F)F [compound 154]

IC50 ([1]; ATP 100 μM, Table^a 154): 0.36 µM
Compound: Fc1ccccc1CN1CCC(c2nnn3cnc4[nH]ccc4c23)CC1 [compound 142]

IC50 ([1]; ATP 100 μM, Table^a 154): 0.64 µM
Compound: c1cc2c(ncn3nnc([C@H]4CC[C@H](CN5CCOCC5)CC4)c23)[nH]1 [compound 91]

IC50 ([1]; ATP 100 μM, Table^a 154): > 1 µM
Compound: O=C(OCc1ccccc1)N1CCC(c2[nH]c(=S)n3cnc4[nH]ccc4c23)CC1 [compound 85]

IC50 [1]: 0.46 µM
Compound: N#Cc1ccc(NC2CCC(c3nnn4cnc5[nH]ccc5c34)CC2)cc1 (centres unmarked) [compound 121]

IC50 [3]: 0.032 µM
Compound: O[C@@H](CNC[C@H]1CC[C@H](c2nnn3cnc4[nH]ccc4c23)CC1)c1ccccc1 [compound 276, (R)-2-({[trans-4-(7H-pyrrolo[3,2-e][1,2,3]triazolo[1,5-c]pyrimidin-1-yl)cyclohexyl]methyl}amino)-1-phenylethanol]

IC50 ([1]; ATP 100 μM, Table^a 154): 0.032 µM
Compound: c1cc2c(ncn3nnc(C4CCN(Cc5csnn5)CC4)c23)[nH]1 [compound 152]

IC50 ([1]; ATP 100 μM, Table^a 154): > 1 µM
Compound: c1cc2c(ncn3nnc(C4CCC(N5CCOCC5)CC4)c23)[nH]1 (centres unmarked) [compound 124]

IC50 ([1]; ATP 100 μM, Table^a 154): 0.31 µM
Compound: c1coc(CN2CCC(c3nnn4cnc5[nH]ccc5c34)CC2)c1 [compound 146]

IC50 [3]: 0.37 µM
IC50 [2]: 0.046 µM
Compound: O=C1NOC[C@H]1NC[C@H]1CC[C@H](c2nnn3cnc4[nH]ccc4c23)CC1 [compound 288, (R)-4-({[trans-4-(7H-pyrrolo[3,2-e][1,2,3]triazolo[1,5-c]pyrimidin-1-yl)cyclohexyl]methyl}amino)isoxazolidin-3-one]

IC50 ([1]; ATP 100 μM, Table^a 154): 0.63 µM
Compound: c1cc(CN2CCC(c3nnn4cnc5[nH]ccc5c34)CC2)[nH]n1 [compound 151]

IC50 [3]: 0.05 µM
Compound: O[C@H](CNC[C@H]1CC[C@H](c2nnn3cnc4[nH]ccc4c23)CC1)c1ccccc1 [compound 277, (S)-2-({[trans-4-(7H-pyrrolo[3,2-e][1,2,3]triazolo[1,5-c]pyrimidin-1-yl)cyclohexyl]methyl}amino)-1-phenylethanol]

IC50 [1]: > 1 µM
Compound: Cc1cc(C#N)ccc1NC[C@H]1CC[C@H](c2nnn3cnc4[nH]ccc4c23)CC1 [compound 103]

IC50 ([1]; ATP 100 μM, Table^a 154): > 1 µM
Compound: N#Cc1ccc(NC[C@H]2CC[C@H](c3nnn4cnc5[nH]ccc5c34)CC2)cc1 [compound 92]

IC50 ([1]; ATP 100 μM, Table^a 154): 0.31 µM
Compound: N#Cc1ccc(CNC[C@H]2CC[C@H](c3nnn4cnc5[nH]ccc5c34)CC2)cc1 [compound 93]
